Laboratory results: patent US20250144172A1, “ANTI-FIBROTIC SIALIDASE INHIBITOR COMPOUNDS AND METHODS OF USE” (The Texas A&M University System, priority 2016, published 2025)
Read-outs that look alike come from different tables or passages of the source. Values belong to the compound of their own block, whether it stands above or below them.

Legend:
human NEU2 = human NEU2 (Homo sapiens (Human), UniProt Q9Y3R4); assay: human NEU2 sialidase inhibition
human NEU3 = human NEU3 (Homo sapiens (Human), UniProt Q9UQ49); assay: human NEU3 sialidase inhibition
human NEU1 = human NEU1 (Homo sapiens (Human), UniProt Q99519); assay: human NEU1 sialidase inhibition
human NEU4 = human NEU4 (Homo sapiens (Human), UniProt Q8WWR8); assay: human NEU4 sialidase inhibition
[1] = read-out: NEU2 IC50, human NEU2
[2] = read-out: NEU3 IC50, human NEU3
[3] = read-out: NEU1 IC50, human NEU1
[4] = read-out: NEU4 IC50, human NEU4

Sequence of human NEU3 (Q9UQ49 whole entry): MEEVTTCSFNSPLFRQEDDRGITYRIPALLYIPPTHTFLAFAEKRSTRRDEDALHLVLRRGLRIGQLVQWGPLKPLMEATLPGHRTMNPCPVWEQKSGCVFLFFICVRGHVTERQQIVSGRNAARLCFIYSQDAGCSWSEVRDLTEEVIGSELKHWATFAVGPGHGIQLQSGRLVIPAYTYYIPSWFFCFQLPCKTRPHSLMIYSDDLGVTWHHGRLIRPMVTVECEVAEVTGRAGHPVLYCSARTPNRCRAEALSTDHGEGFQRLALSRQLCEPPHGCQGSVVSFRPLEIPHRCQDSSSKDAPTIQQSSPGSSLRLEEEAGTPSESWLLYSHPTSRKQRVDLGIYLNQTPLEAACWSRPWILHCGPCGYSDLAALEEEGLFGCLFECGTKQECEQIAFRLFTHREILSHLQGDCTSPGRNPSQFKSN
Sequence of human NEU4 (Q8WWR8 whole entry): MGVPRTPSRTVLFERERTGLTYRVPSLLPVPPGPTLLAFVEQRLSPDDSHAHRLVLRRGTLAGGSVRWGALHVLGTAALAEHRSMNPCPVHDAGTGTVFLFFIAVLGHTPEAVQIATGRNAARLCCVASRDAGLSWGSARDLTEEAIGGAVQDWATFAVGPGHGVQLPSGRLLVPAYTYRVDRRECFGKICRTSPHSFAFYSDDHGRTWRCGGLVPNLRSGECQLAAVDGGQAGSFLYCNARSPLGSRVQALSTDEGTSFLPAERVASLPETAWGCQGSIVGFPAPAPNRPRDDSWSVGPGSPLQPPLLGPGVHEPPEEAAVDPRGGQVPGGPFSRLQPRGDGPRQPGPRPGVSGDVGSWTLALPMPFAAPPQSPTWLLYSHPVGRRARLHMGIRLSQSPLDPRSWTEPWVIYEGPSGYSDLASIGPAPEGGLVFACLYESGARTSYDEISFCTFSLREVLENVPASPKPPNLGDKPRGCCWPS
Sequence of human NEU2 (Q9Y3R4 whole entry): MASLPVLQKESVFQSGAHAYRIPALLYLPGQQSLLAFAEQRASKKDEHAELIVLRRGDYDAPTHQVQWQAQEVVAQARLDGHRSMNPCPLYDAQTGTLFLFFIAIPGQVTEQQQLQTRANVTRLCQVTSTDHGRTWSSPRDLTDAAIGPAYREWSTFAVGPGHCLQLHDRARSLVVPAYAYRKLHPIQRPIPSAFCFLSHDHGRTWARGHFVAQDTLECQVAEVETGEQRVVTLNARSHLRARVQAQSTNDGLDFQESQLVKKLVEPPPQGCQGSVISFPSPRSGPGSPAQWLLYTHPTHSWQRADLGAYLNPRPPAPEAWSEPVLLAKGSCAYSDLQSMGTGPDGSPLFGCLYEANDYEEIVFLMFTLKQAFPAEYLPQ

Compound: CC(=O)NC[C@H](O)[C@H](O)[C@@H]1OC(C(=O)O)=C[C@H](O)[C@H]1NC(C)=O [Compound 2]
- IC50 (human NEU3; [2]): > 1000 µM
- IC50 (human NEU1; [3]): 58 µM
- IC50 (human NEU4; [4]): 580 µM

Compound: CC(=O)N[C@H]1[C@H]([C@@H](O)[C@@H](O)CNC(=O)c2ccccc2)OC(C(=O)O)=C[C@@H]1O [Compound 3]
- IC50 (human NEU3; [2]): 320 µM
- IC50 (human NEU1; [3]): 13 µM
- IC50 (human NEU4; [4]): 810 µM

Compound: CC(=O)N[C@H]1[C@H]([C@@H](O)[C@@H](O)CNC(=O)C2CCCC2)OC(C(=O)O)=C[C@@H]1O [Compound 4]
- IC50 (human NEU3; [2]): > 1000 µM
- IC50 (human NEU1; [3]): 135 µM
- IC50 (human NEU4; [4]): > 1000 µM

Compound: CC(=O)N[C@H]1[C@H]([C@@H](O)[C@@H](O)CNC(=O)C2CC2)OC(C(=O)O)=C[C@@H]1O [Compound 5]
- IC50 (human NEU3; [2]): > 1000 µM
- IC50 (human NEU1; [3]): 680 µM
- IC50 (human NEU4; [4]): 825 µM

Compound: CCCC(=O)NC[C@H](O)[C@H](O)[C@@H]1OC(C(=O)O)=C[C@H](O)[C@H]1NC(C)=O [Compound 6]
- IC50 (human NEU3; [2]): > 1000 µM
- IC50 (human NEU1; [3]): 32 µM

Compound: CC(=O)N[C@H]1[C@H]([C@@H](O)[C@@H](O)CNC(=O)CC(C)C)OC(C(=O)O)=C[C@@H]1O [Compound 7]
- IC50 (human NEU3; [2]): > 1000 µM
- IC50 (human NEU1; [3]): 565 µM
- IC50 (human NEU4; [4]): > 1000 µM

Compound: CCCCC(=O)NC[C@H](O)[C@H](O)[C@@H]1OC(C(=O)O)=C[C@H](O)[C@H]1NC(C)=O [Compound 8]
- IC50 (human NEU4; [4]): > 1000 µM

Compound: CC(=O)N[C@@H]1[C@@H](O)C=C(C(=O)O)C[C@H]1OCC(C)C [Compound 12]
- Ki (human NEU2): 880 µM

Compound: CC(=O)N[C@@H]1[C@@H](O)C=C(C(=O)O)C[C@H]1OCCCO [Compound 13]
- Ki (human NEU2): 740 µM

Compound: CC(=O)N[C@@H]1[C@@H](O)C=C(C(=O)O)C[C@H]1OCC(O)CO (some centres unmarked) [Compound 14]
- Ki (human NEU2): 1400 µM

Compound: CC(=O)N[C@H]1[C@H]([C@H](O)[C@H](O)Cn2ccnn2)OC(C(=O)O)=C[C@@H]1O [Compound 15]
- IC50 (human NEU3; [2]): 70 ± 20 µM

Compound: CC(=O)N[C@H]1[C@H]([C@H](O)[C@H](O)Cn2cc(-c3ccccc3)nn2)OC(C(=O)O)=C[C@@H]1O [Compound 16]
- IC50 (human NEU3; [2]): 20 ± 10 µM

Compound: CCCCCCc1cn(C[C@@H](O)[C@@H](O)[C@@H]2OC(C(=O)O)=C[C@H](O)[C@H]2NC(C)=O)nn1 [Compound 17]
- IC50 (human NEU3; [2]): 23 ± 4 µM

Compound: CCOc1cn(C[C@@H](O)[C@@H](O)[C@@H]2OC(C(=O)O)=C[C@H](O)[C@H]2NC(C)=O)nn1 [Compound 18]
- IC50 (human NEU3; [2]): 300 ± 200 µM

Compound: CCOC(OCC)c1cn(C[C@@H](O)[C@@H](O)[C@@H]2OC(C(=O)O)=C[C@H](O)[C@H]2NC(C)=O)nn1 [Compound 19]
- IC50 (human NEU3; [2]): 130 ± 20 µM

Compound: CC(=O)N[C@H]1[C@H]([C@H](O)[C@H](O)Cn2cc(COc3ccccc3)nn2)OC(C(=O)O)=C[C@@H]1O [Compound 20]
- IC50 (human NEU3; [2]): 45 ± 3 µM

Compound: CC(=O)N[C@H]1[C@H]([C@H](O)[C@H](O)Cn2cc(CO)nn2)OC(C(=O)O)=C[C@@H]1O [Compound 21]
- IC50 (human NEU3; [2]): 300 ± 400 µM

Compound: CC(=O)N[C@H]1[C@H]([C@H](O)[C@H](O)Cn2cc(CCO)nn2)OC(C(=O)O)=C[C@@H]1O [Compound 22]
- IC50 (human NEU3; [2]): 400 ± 600 µM

Compound: CCC(CC)O[C@@H]1CC(C(=O)O)C=C(n2cc([C@]3(O)CCC4C5CCc6cc(O)ccc6C5CC[C@@]43C)nn2)[C@H]1NC(C)=O (some centres unmarked) [Compound 29]
- IC50 (human NEU3; NEU3 IC50, human NEU3): 350 ± 100 µM
- IC50 (human NEU4): 800 ± 400 µM

Compound: CC(=O)N[C@H]1[C@H]([C@H](O)[C@H](O)CN=[N+]=[N-])OC(C(=O)O)=C[C@@H]1O [Compound 32]
- IC50 (human NEU2; [1]): 31 ± 6 µM

Compound: [N-]=[N+]=NC[C@@H](O)[C@@H](O)[C@@H]1OC(C(=O)O)=C[C@H](O)[C@H]1NC(=O)CO [Compound 33]
- IC50 (human NEU2; [1]): 190 µM

Compound: COC[C@@H](O)[C@@H](O)[C@@H]1OC(C(=O)O)=C[C@H](O)[C@H]1NC(C)=O [Compound 35]
- IC50 (human NEU2; [1]): 410 µM

Compound: CC(=O)N[C@@H]1C(O)C=C(C(=O)O)OC1C(O)C(O)CN=[N+]=[N-] (some centres unmarked) [Compound 48]
- IC50 (human NEU3; NEU3 IC50, human NEU3): 19.7 ± 2.3 µM
- IC50 (human NEU1): 620 ± 10 µM
- IC50 (human NEU4): 60 ± 20 µM

Continued, values first:

- IC50 (human NEU2; [1]): 34 ± 4 µM
Compound: 2,6-Anhydro-3,5-dideoxy-5-glycolylamido-D-glycero-D-galactonon-2-enonic acid [Compound 39]

- IC50 (human NEU3; [2]): 500 ± 200 µM
Compound: CC(=O)N[C@H]1[C@H]([C@H](O)[C@H](O)Cn2cc(CCCO)nn2)OC(C(=O)O)=C[C@@H]1O [Compound 23]

- IC50 (human NEU3; [2]): 300 ± 500 µM
Compound: CC(=O)N[C@H]1[C@H]([C@H](O)[C@H](O)Cn2cc(C(C)(C)O)nn2)OC(C(=O)O)=C[C@@H]1O [Compound 24]

- Ki (human NEU3): 21 ± 8 µM
Compound: O=C(Cn1ccnn1)N[C@H]1[C@H]([C@H](O)[C@H](O)CO)OC(C(=O)O)=C[C@@H]1O [Compound 25]

- IC50 (human NEU3; [2]): 640 ± 210 µM
Compound: CCC(CC)O[C@@H]1CC(C(=O)O)C=C(n2cc(C(C)(C)O)nn2)[C@H]1NC(C)=O (some centres unmarked) [Compound 30]

- IC50 (human NEU3; NEU3 IC50, human NEU3): 54 ± 5 µM
- IC50 (human NEU1): 360 ± 50 µM
- IC50 (human NEU4): 1000 ± 60 µM
Compound: CC(=O)N[C@@H]1C(N=[N+]=[N-])C=C(C(=O)O)OC1C(O)C(O)CO (some centres unmarked) [Compound 37]

- IC50 (human NEU3; NEU3 IC50, human NEU3): 24 ± 2 µM
Compound: CC(=O)N[C@@H]1C(N=[N+]=[N-])C=C(C(=O)O)OC1CNOCc1ccccc1 (some centres unmarked) [Compound 41]

- IC50 (human NEU3; NEU3 IC50, human NEU3): 24 ± 11 µM
- IC50 (human NEU4): 350 ± 180 µM
Compound: CC(=O)N[C@@H]1C(N=[N+]=[N-])C=C(C(=O)O)OC1CN(Cc1ccccc1)OCc1ccccc1 (some centres unmarked) [Compound 42]

- IC50 (human NEU3; NEU3 IC50, human NEU3): 20 ± 8 µM
Compound: CC(=O)N[C@@H]1C(N=[N+]=[N-])C=C(C(=O)O)OC1CNNc1ccccc1 (some centres unmarked) [Compound 43]

- IC50 (human NEU3; NEU3 IC50, human NEU3): 540 ± 30 µM
Compound: CC(=O)N[C@@H]1C(N)C=C(C(=O)O)OC1CNc1ccccc1 (some centres unmarked) [Compound 44]

- IC50 (human NEU3; NEU3 IC50, human NEU3): 370 ± 80 µM
- IC50 (human NEU2; NEU2 IC50, human NEU2): 100 ± 13 µM
Compound: CC(=O)N[C@@H]1C(N)C=C(C(=O)O)OC1CNc1ccccc1 (some centres unmarked) [Compound 45]

- IC50 (human NEU3; NEU3 IC50, human NEU3): 70 ± 20 µM
- IC50 (human NEU4): 200 ± 20 µM
Compound: CC(=O)N[C@@H]1C(O)C=C(C(=O)O)OC1CNNCc1ccc(-c2ccccc2)cc1 (some centres unmarked) [Compound 47]

- IC50 (human NEU3; NEU3 IC50, human NEU3): 4.7 ± 0.3 µM
- IC50 (human NEU1): 29 ± 0.5 µM
- IC50 (human NEU4): 4.5 ± 0.1 µM
Compound: [N-]=[N+]=NCC(=O)N[C@@H]1C(O)C=C(C(=O)O)OC1C(O)C(O)CO (some centres unmarked) [Compound 49]

- IC50 (human NEU4): 250 ± 40 µM
Compound: O=C(Cn1cc(-c2ccccc2)nn1)N[C@@H]1C(O)C=C(C(=O)O)OC1C(O)C(O)CO (some centres unmarked) [Compound 50]

- IC50 (human NEU3; [2]): 4.6 ± 0.2 µM
- IC50 (human NEU1; [3]): 200 ± 30 µM
- IC50 (human NEU4; [4]): 2.3 ± 0.2 µM
Compound: CC(=O)N[C@H]1C([C@@H](O)[C@@H](O)Cn2cc(-c3ccccc3)nn2)OC(C(=O)O)=C[C@@H]1O (some centres unmarked) [Compound 51]

- IC50 (human NEU3; [2]): 90 ± 10 µM
- IC50 (human NEU1; [3]): 170 ± 20 µM
- IC50 (human NEU4; [4]): 3.6 ± 0.3 µM
Compound: CCOc1cn(C[C@H](O)[C@H](O)C2OC(C(=O)O)=C[C@H](O)[C@H]2NC(C)=O)nn1 (some centres unmarked) [Compound 52]

- IC50 (human NEU3; [2]): 5.5 ± 0.6 µM
- IC50 (human NEU4; [4]): 1.7 ± 0.2 µM
- IC50 (human NEU2; [1]): 800 ± 70 µM
Compound: CC(=O)N[C@H]1C([C@@H](O)[C@@H](O)Cn2cc(OCc3ccccc3)nn2)OC(C(=O)O)=C[C@@H]1O (some centres unmarked) [Compound 53]

- IC50 (human NEU3; [2]): 80 ± 10 µM
- IC50 (human NEU1; [3]): > 1000 µM
Compound: CC(=O)N[C@H]1C([C@@H](O)[C@@H](O)Cn2cc(CO)nn2)OC(C(=O)O)=C[C@@H]1O (some centres unmarked) [Compound 54]

- IC50 (human NEU3; [2]): 38 ± 2 µM
- IC50 (human NEU1; [3]): > 1000 µM
- IC50 (human NEU4; [4]): 0.81 ± 0.04 µM
Compound: CC(=O)N[C@H]1C([C@@H](O)[C@@H](O)Cn2cc(CCO)nn2)OC(C(=O)O)=C[C@@H]1O (some centres unmarked) [Compound 55]

- IC50 (human NEU3; [2]): 39 ± 1 µM
- IC50 (human NEU1; [3]): 660 ± 20 µM
- IC50 (human NEU4; [4]): 2.1 ± 0.1 µM
Compound: CC(=O)N[C@H]1C([C@@H](O)[C@@H](O)Cn2cc(CCCO)nn2)OC(C(=O)O)=C[C@@H]1O (some centres unmarked) [Compound 56]

- IC50 (human NEU1; [3]): > 1000 µM
- IC50 (human NEU4; [4]): 4 ± 0.3 µM
Compound: CC(=O)N[C@H]1C([C@@H](O)[C@@H](O)Cn2cc(C(C)(C)O)nn2)OC(C(=O)O)=C[C@@H]1O (some centres unmarked) [Compound 57]
